The values below come from article PMC10257758 (Drug development research, 2023).

Several values for one entry are separate records, joined by “and”; a condition that tells them apart may be missing. Identical values can stand only once.

One data set deals with CA I (Homo sapiens, UniProt P00915). Description: CA-catalysed CO2 hydration stopped-flow inhibition assay, CA I. The format is biochemical. As to conditions: mean from 3 assays.
Another data set deals with CA XII (Homo sapiens, UniProt O43570). Description: CA-catalysed CO2 hydration stopped-flow inhibition assay, CA XII. The data set is classed as biochemical. As to conditions: mean from 3 assays.
For another data set, the target named is CA II (Homo sapiens, UniProt P00918). The data set is described as follows: CA-catalysed CO2 hydration stopped-flow inhibition assay, CA II. The format is biochemical. As to conditions: mean from 3 assays.
The target in the next data set is CA IX (Homo sapiens, UniProt Q16790). The data set is described as follows: CA-catalysed CO2 hydration stopped-flow inhibition assay, CA IX. The data set is classed as biochemical. As to conditions: mean from 3 assays.
A further data set deals with HEK293 cells. The data set is described as follows: MTS cytotoxicity / cell viability assay. The data set is classed as cell-based, human. As to conditions: low tumorigenic cells (HEK293).
The nature of data set [1]: MTS cytotoxicity / cell viability assay. The data set is classed as cell-based, human. The following applies: human, HEK293 cells.

Chain of CA XII (O43570 25-354): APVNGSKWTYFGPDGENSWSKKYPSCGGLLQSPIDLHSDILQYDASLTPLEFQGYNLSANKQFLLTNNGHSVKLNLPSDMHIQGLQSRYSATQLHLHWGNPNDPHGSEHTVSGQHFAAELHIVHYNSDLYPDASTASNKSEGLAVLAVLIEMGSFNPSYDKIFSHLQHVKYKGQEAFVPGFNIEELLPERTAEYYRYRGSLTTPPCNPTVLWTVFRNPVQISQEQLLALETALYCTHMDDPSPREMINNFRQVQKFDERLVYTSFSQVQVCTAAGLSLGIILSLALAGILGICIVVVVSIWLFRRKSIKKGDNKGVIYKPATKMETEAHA
Chain of CA I (P00915 whole entry): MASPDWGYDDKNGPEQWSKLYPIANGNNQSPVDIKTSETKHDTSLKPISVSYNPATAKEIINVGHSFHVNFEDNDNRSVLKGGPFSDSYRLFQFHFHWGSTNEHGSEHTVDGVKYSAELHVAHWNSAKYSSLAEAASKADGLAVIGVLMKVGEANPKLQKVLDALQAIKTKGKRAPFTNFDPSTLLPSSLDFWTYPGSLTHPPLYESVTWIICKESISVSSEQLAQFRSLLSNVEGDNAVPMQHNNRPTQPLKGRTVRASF

Regarding `CCOC(=O)c1cc2ccc(OCC(=O)Nc3ccc(S(N)(=O)=O)cc3)cc2oc1=O` [5a, Ethyl 2-oxo-7-(2-oxo-2-((4-sulfamoylphenyl)amino)ethoxy)-2H-chromene-3-carboxylate], the Ki was 738 nM at CA I (cells/sentences stated in nM) and 20.3 nM at CA XII (cells/sentences stated in nM).

With `CCOC(=O)c1cc2ccc(OCC(=O)Nc3ccc(S(=O)(=O)Nc4ncnc(OC)c4OC)cc3)cc2oc1=O` [5b, Ethyl 7-(2-((4-(N-(5,6-dimethoxypyrimidin-4-yl)sulfamoyl)phenyl)amino)-2-oxoethoxy)-2-oxo-2H-chromene-3-carboxylate], the Ki was greater than 100000 nM on CA I (μM unless stated), greater than 100 µM on CA II (μM unless stated), greater than 100 µM at CA IX (μM unless stated) and greater than 100000 nM on CA XII (μM unless stated).

Regarding `CCOC(=O)c1cc2ccc(OCC(=O)Nc3ccc(S(=O)(=O)NC(C)=O)cc3)cc2oc1=O` [5c, Ethyl 7-(2-((4-(N-acetylsulfamoyl)phenyl)amino)-2-oxoethoxy)-2-oxo-2H-chromene-3-carboxylate], the Ki at CA I (μM unless stated) was greater than 100000 nM; on CA II (μM unless stated), greater than 100 µM; on CA IX (μM unless stated), 6.1 µM; on CA XII (μM unless stated), 1900 nM.

Turning to `NS(=O)(=O)c1ccc(NC(=O)c2cc3cc(Cl)ccc3oc2=O)cc1` [9b, 6-Chloro-2-oxo-N-(4-sulfamoylphenyl)-2H-chromene-3-carboxamide], the Ki at CA I (cells/sentences stated in nM) is 818 nM; on CA II (cells/sentences stated in nM), 0.064 µM and 0.0635 µM; on CA IX (cells/sentences stated in nM) it was 0.0523 µM; at CA XII (cells/sentences stated in nM) it was 28.4 nM.

`NS(=O)(=O)c1ccc(NC(=O)c2cc3cc(Br)ccc3oc2=O)cc1` [9c, 6-Bromo-2-oxo-N-(4-sulfamoylphenyl)-2H-chromene-3-carboxamide]: the Ki came out at 1420 nM at CA I (cells/sentences stated in nM), 0.0854 µM on CA II (cells/sentences stated in nM), 0.0676 µM on CA IX (cells/sentences stated in nM) and 16.2 nM at CA XII (cells/sentences stated in nM).

With `NS(=O)(=O)c1ccc(NC(=O)c2cc3cc(Cl)cc(Cl)c3oc2=O)cc1` [9d, 6,8-Dichloro-2-oxo-N-(4-sulfamoylphenyl)-2H-chromene-3-carboxamide], the Ki on CA I (cells/sentences stated in nM) worked out at 2320 nM; at CA II (cells/sentences stated in nM), 0.238 µM; at CA IX (cells/sentences stated in nM), 0.105 µM; on CA XII (cells/sentences stated in nM), 46.3 nM.

On CA IX (cells/sentences stated in nM), `COc1ccc2cc(C(=O)Nc3ccc(S(N)(=O)=O)cc3)c(=O)oc2c1` [9h, 7-Methoxy-2-oxo-N-(4-sulfamoylphenyl)-2H-chromene-3-carboxamide] returned a Ki of 0.0318 µM.

Regarding `COc1ccc(NS(=O)(=O)c2ccc(NC(=O)c3cc4cc(Cl)ccc4oc3=O)cc2)nn1` [11b, 6-Chloro-N-(4-(N-(6-methoxypyridazin-3-yl)sulfamoyl)phenyl)-2-oxo-2H-chromene-3-carboxamide], the Ki at CA I (μM unless stated) is greater than 100000 nM; on CA II (μM unless stated), greater than 100 µM; at CA IX (μM unless stated), greater than 100 µM; at CA XII (μM unless stated) it was greater than 100000 nM.

For `COc1ccc(NS(=O)(=O)c2ccc(NC(=O)c3cc4cc(Cl)cc(Cl)c4oc3=O)cc2)nn1` [11d, 6,8-Dichloro-N-(4-(N-(6-methoxypyridazin-3-yl)sulfamoyl)phenyl)-2-oxo-2H-chromene-3-carboxamide], the Ki on CA I (μM unless stated) is greater than 100000 nM; at CA II (μM unless stated) it was greater than 100 µM; at CA IX (μM unless stated), greater than 100 µM; on CA XII (μM unless stated), greater than 100000 nM.

Regarding `Cc1nnc(NS(=O)(=O)c2ccc(NC(=O)c3cc4cc(Br)ccc4oc3=O)cc2)s1` [13c, 6-Bromo-N-(4-(N-(5-methyl-1,3,4-thiadiazol-2-yl)sulfamoyl)phenyl)-2-oxo-2H-chromene-3-carboxamide], the Ki on CA I (μM unless stated) was greater than 100000 nM; at CA II (μM unless stated), greater than 100 µM; on CA IX (μM unless stated) it was greater than 100 µM; at CA XII (μM unless stated) it was greater than 100000 nM.

As to `COc1cc(NS(=O)(=O)c2ccc(NC(=O)c3cc4cc(Br)ccc4oc3=O)cc2)nc(OC)n1` [14c, 6-Bromo-N-(4-(N-(2,6-dimethoxypyrimidin-4-yl)sulfamoyl)phenyl) −2-oxo-2H-chromene −3-carboxamide], the inhibition constant Ki on CA I (μM unless stated) was greater than 100000 nM; on CA II (μM unless stated), greater than 100 µM; at CA IX (μM unless stated), greater than 100 µM; on CA XII (μM unless stated), greater than 100000 nM.

In the case of `COc1cc(NS(=O)(=O)c2ccc(NC(=O)c3cc4ccccc4oc3=O)cc2)nc(OC)n1` [14e, N-(4-(N-(2,6-dimethoxypyrimidin-4-yl)sulfamoyl)phenyl)-2-oxo-2H-chromene-3-carboxamide], the Ki on CA I (μM unless stated) is greater than 100000 nM; at CA II (μM unless stated) it was greater than 100 µM; at CA IX (μM unless stated), greater than 100 µM; on CA XII (μM unless stated), greater than 100000 nM.

For the compound `CC(=O)NS(=O)(=O)c1ccc(NC(=O)c2cc3cc(Br)ccc3oc2=O)cc1` [15c, N-(4-(N-acetylsulfamoyl)phenyl)-6-bromo-2-oxo-2H-chromene-3-carboxamide], the Ki at CA I (μM unless stated) is greater than 100000 nM; at CA II (μM unless stated), 46.8 µM; on CA IX (μM unless stated), 0.91 µM; at CA XII (μM unless stated), 10600 nM.

`CC(=O)NS(=O)(=O)c1ccc(NC(=O)c2cc3ccccc3oc2=O)cc1` [15e, N-(4-(N-acetylsulfamoyl)phenyl)-2-oxo-2H-chromene-3-carboxamide]: the inhibition constant Ki on CA I (μM unless stated) was greater than 100000 nM; at CA II (μM unless stated), 10.3 µM; on CA XII (μM unless stated), 6300 nM.

As for `NS(=O)(=O)c1cccc(NC(=O)c2cc3cc(Br)ccc3oc2=O)c1` [16c, 6-Bromo-2-oxo-N-(3-sulfamoylphenyl)-2H-chromene-3-carboxamide], the Ki at CA I (cells/sentences stated in nM) was 1960 nM; at CA II (cells/sentences stated in nM) it was 0.0763 µM; on CA IX (cells/sentences stated in nM), 0.0144 µM; on CA XII (cells/sentences stated in nM) it was 54.2 nM.

For `NS(=O)(=O)c1cccc(NC(=O)c2cc3ccccc3oc2=O)c1` [16e, 2-Oxo-N-(3-sulfamoylphenyl)-2H-chromene-3-carboxamide], the Ki on CA I (cells/sentences stated in nM) was 193 nM; at CA II (cells/sentences stated in nM) it was 0.0535 µM; on CA IX (cells/sentences stated in nM) it was 0.0189 µM; on CA XII (cells/sentences stated in nM), 69.8 nM.

`COc1ccc2oc(=O)c(C(=O)Nc3cccc(S(N)(=O)=O)c3)cc2c1` [16f, 6-Methoxy-2-oxo-N-(3-sulfamoylphenyl)-2H-chromene-3-carboxamide]: the Ki is 774 nM on CA I (cells/sentences stated in nM); 0.212 µM on CA II (cells/sentences stated in nM); 0.005 µM on CA IX (cells/sentences stated in nM); 52 nM and 52.1 nM on CA XII (cells/sentences stated in nM).

On to `NS(=O)(=O)c1cccc(NC(=O)c2cc3cc(F)ccc3oc2=O)c1` [16i, 6-Fluoro-2-oxo-N-(3-sulfamoylphenyl)-2H-chromene-3-carboxamide], for which the Ki on CA I (cells/sentences stated in nM) came to 225 nM; on CA II (cells/sentences stated in nM), 0.0752 µM; on CA IX (cells/sentences stated in nM), 0.0152 µM; at CA XII (cells/sentences stated in nM), 49.5 nM.

`COc1ccc2oc(=O)c(C(=O)Nc3cc(C(F)(F)F)c(S(N)(=O)=O)cc3S(N)(=O)=O)cc2c1` [18f, N-(2,4-disulfamoyl-5-(trifluoromethyl)phenyl)-6-methoxy-2-oxo-2H-chromene-3-carboxamide]: in the data set with HEK293 cells, the general cytotoxic effect entry is reported as “no general cytotoxic effect”. The compound also gave a viability at 72 h, 100 µM in data set [1] of 97%.

As for `CCN(CC)c1ccc2cc(C(=O)OCC(=O)Nc3ccc(S(N)(=O)=O)cc3)c(=O)oc2c1` [compound 22, 2-Oxo-2-((4-sulfamoylphenyl)amino)ethyl-7-(diethylamino)-2-oxo-2H-chromene-3-carboxylate], the Ki turned out to be 74.4 nM at CA I (cells/sentences stated in nM), 0.023 µM at CA II (cells/sentences stated in nM), 0.0196 µM on CA IX (cells/sentences stated in nM) and 65.7 nM on CA XII (cells/sentences stated in nM).
